Assay results reported in US9796700B2 (Celgene CAR LLC, priority 2013, dated 2017).

Experiments:
Erk1 = Erk1 (Homo sapiens (Human), UniProt P27361); assay: Protein Mass Modification Assay (intact protein MALDI); format: binding
Outline: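 Human Erk1 was incubated 60 min at room temperature with a 10-fold molar excess of compound, then analysed as intact protein by MALDI with sinapinic acid matrix. The centroid mass shift versus untreated protein was divided by compound molecular weight to give percent modified protein.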

MEK1 activated ERK1 = MEK1 activated ERK1 (Homo sapiens (Human), UniProt P27361); assay: Omnia continuous-read kinase assay for potency against MEK1 activated ERK1; format: biochemical; settings: MEK1 activated ERK1, WT, ATP at KM
Source text: Omnia Assay Protocol for Potency Assessment Against MEK1 Activated ERK1:
The protocol below describes continuous-read kinase assays to measure potency of compounds against activated ERK1 enzyme. The mechanics of the assay platform are best described by the vendor (Invitrogen, Carlsbad, Calif.) on their website at the following URL: invitrogen.com/site/us/en/home.html.
Briefly, a 1.25× stock of ERK1 enzyme (14-439-K) from Millipore (Billerica, Mass.), 5×ATP (AS001A) and ST17-Sox conjugated peptide substrate (KNZ1171C) were prepared in 1× kinase reaction buffer consisting of 20 mM Tris, pH 7.5, 5 mM MgCl2, 1 mM EGTA, 5 mM β-glycerophosphate, 5% glycerol (10× stock, KB002A) and 0.2 mM DTT. 10 μL of ATP/ST17-sox peptide substrate mix was combined with 0.5 μL volume of 100% DMSO and serially diluted compounds were prepared in 100% DMSO in a Corning (#3574) 384-well, white, non-binding surface microtiter plate (Corning, N.Y.). Kinase reactions were started with the addition of 40 μL of ERK1 solution and monitored every 71 seconds for 30-240 minutes at λex360/λem485 in a Synergy plate reader from BioTek (Winooski, Vt.). At the conclusion of each assay, progress curves from each well were examined for linear reaction kinetics and fit statistics (R^2, 95% confidence interval, absolute sum of squares). Initial velocity (0 minutes to ˜30+ minutes) from each reaction was determined from the slope of a plot of relative fluorescence units vs time (minutes or seconds) and then plotted against inhibitor concentration to estimate ^AppIC50 from log [Inhibitor] vs Response, Variable Slope model in GraphPad Prism from GraphPad Software (San Diego, Calif.).
[Reagent] used in optimized protocol:
[ERK1]=4 nM, [ATP]=50 μM, [ST17-Sox]=10 μM (ATP ^appKM 48 μM)
The results of this assay show the degree of inhibition of ERK activity, which is a direct measurement of inhibition of ERK activity. Results from this assay are reported in Table A under the column “ERK1 Omnia WT ATP KM IC50 (nM).”

Chain of MEK1 activated ERK1 (P27361 whole entry): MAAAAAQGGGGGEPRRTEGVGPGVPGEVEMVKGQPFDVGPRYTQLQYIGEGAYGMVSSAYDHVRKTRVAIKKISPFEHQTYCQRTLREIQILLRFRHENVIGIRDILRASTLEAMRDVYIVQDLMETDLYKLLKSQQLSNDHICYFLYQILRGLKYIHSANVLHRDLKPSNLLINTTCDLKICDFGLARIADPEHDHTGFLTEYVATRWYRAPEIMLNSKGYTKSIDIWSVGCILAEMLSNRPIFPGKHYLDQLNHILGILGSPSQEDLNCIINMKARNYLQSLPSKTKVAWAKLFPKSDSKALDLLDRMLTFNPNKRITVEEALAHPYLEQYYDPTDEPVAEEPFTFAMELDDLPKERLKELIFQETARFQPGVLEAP
Chain of Erk1 (P27361 whole entry, looked up): as the sequence (P27361 whole entry) above

Structure (SMILES) | ERK1 Mass Mod (%) (Erk1) | IC50 (MEK1 activated ERK1) [nM]
C=CS(=O)(=O)N[C@@H]1CCCC[C@H]1Nc1nc(N[C@H]2CCCN(C(=O)CO)C2)ncc1C(F)(F)F [Compound I-36, N-((1R,2R)-2-((2-(((S)-1-(2-Hydroxyacetyl)piperidin-3-yl)amino)-5-(trifluoromethyl)pyrimidin-4-yl)amino)cyclohexyl)ethenesulfonamide] | E (provided a mass modification of ≧70%) | < 100
C=CC(=O)Nc1ccc(C)cc1Nc1nc(N[C@H]2CCCN(C(=O)CO)C2)ncc1C(F)(F)F [Compound I-37, (S)—N-(2-((2-((1-(2-hydroxyacetyl)piperidin-3-yl)amino)-5-(trifluoromethyl)pyrimidin-4-yl)amino)-4-methylphenyl)acrylamide] | E (provided a mass modification of ≧70%) | < 100
C=CC(=O)Nc1cc(C)ccc1Nc1nc(NC2CCC(=O)CC2)ncc1C(F)(F)F [Compound I-38, N-(5-Methyl-2-((2-((4-oxocyclohexyl)amino)-5-(trifluoromethyl)pyrimidin-4-yl)amino)phenyl)acrylamide] | E (provided a mass modification of ≧70%) | < 100
C=CC(=O)Nc1cc(C)ccc1Nc1nc(N[C@H]2CCCN(C(=O)c3ccccc3)C2)ncc1C(F)(F)F [Compound I-44, (S)—N-(2-((2-((1-Benzoylpiperidin-3-yl)amino)-5-(trifluoromethyl)pyrimidin-4-yl)amino)-5-methylphenyl)acrylamide] | E (provided a mass modification of ≧70%) | > 1000
C=C(C)S(=O)(=O)Nc1ccccc1Nc1nc(N[C@H]2CCCN(C(=O)CO)C2)ncc1C(F)(F)F [Compound I-46, (S)—N-(2-((2-((1-(2-Hydroxyacetyl)piperidin-3-yl)amino)-5-(trifluoromethyl)pyrimidin-4-yl)amino)phenyl)prop-1-ene-2-sulfonamide] | G (proived a mass modification ≦30%) | < 100
C=C(C)S(=O)(=O)Nc1cc(F)ccc1Nc1nc(N[C@H]2CCCN(C(=O)CO)C2)ncc1C(F)(F)F [Compound I-54, (S)—N-(5-Fluoro-2-((2-((1-(2-hydroxyacetyl)piperidin-3-yl)amino)-5-(trifluoromethyl)pyrimidin-4-yl)amino)phenyl)prop-1-ene-2-sulfonamide] | G (proived a mass modification ≦30%) | < 100
C=C(F)C(=O)Nc1ccccc1Nc1nc(N[C@H]2CCCN(C(C)=O)C2)ncc1C(F)(F)F [Compound I-55, (S)—N-(2-((2-((1-Acetylpiperidin-3-yl)amino)-5-(trifluoromethyl)pyrimidin-4-yl)amino)phenyl)-2-fluoroacrylamide] | E (provided a mass modification of ≧70%) | < 100
C=CC(=O)Nc1ccccc1Nc1nc(N[C@@H]2CCN(C(=O)CO)C2)ncc1C(F)(F)F [Compound I-62, (R)—N-(2-((2-((1-(2-Hydroxyacetyl)pyrrolidin-3-yl)amino)-5-(trifluoromethyl)pyrimidin-4-yl)amino)phenyl)acrylamide] | F (provided a mass modification of 31-69%) | > 1000
C=CC(=O)Nc1ccccc1Nc1nc(Nc2cc(C(N)=O)ccc2OC)ncc1C(F)(F)F [Compound I-70, 3-((4-((2-Acrylamidophenyl)amino)-5-(trifluoromethyl)pyrimidin-2-yl)amino)-4-methoxybenzamide] | E (provided a mass modification of ≧70%) | < 100
C=CC(=O)Nc1ccccc1Nc1nc(Nc2cc(C(N)=O)ccc2C#N)ncc1C(F)(F)F [Compound I-71, 3-((4-((2-Acrylamidophenyl)amino)-5-(trifluoromethyl)pyrimidin-2-yl)amino)-4-cyanobenzamide] | E (provided a mass modification of ≧70%) | < 100
C=CC(=O)Nc1cc(OC)ccc1Nc1nc(Nc2cc(OC)nc(N3CCN(CC)CC3)c2)ncc1C(F)(F)F [Compound I-88, N-(2-((2-((2-(4-Ethylpiperazin-1-yl)-6-methoxypyridin-4-yl)amino)-5-(trifluoromethyl)pyrimidin-4-yl)amino)-5-methoxyphenyl)acrylamide] | E (provided a mass modification of ≧70%) | < 100
C=CC(=O)Nc1cc(C)ccc1Nc1nc(Nc2cc(OC)ncc2C)ncc1C(F)(F)F [Compound I-90, N-(2-((2-((2-Methoxy-5-methylpyridin-4-yl)amino)-5-(trifluoromethyl)pyrimidin-4-yl)amino)-5-methylphenyl)acrylamide] | E (provided a mass modification of ≧70%) | < 100

More lines, now with the values ahead:

ERK1 Mass Mod (%) (Erk1) | IC50 (MEK1 activated ERK1) [nM] | Structure (SMILES)
E (provided a mass modification of ≧70%) | < 100 | C=CC(=O)Nc1cc(C)ccc1Nc1nc(N[C@H]2CCCN(C(=O)CN)C2)ncc1C(F)(F)F [Compound I-42, (S)—N-(2-((2-((1-(2-Aminoacetyl)piperidin-3-yl)amino)-5-(trifluoromethyl)pyrimidin-4-yl)amino)-5-methylphenyl)acrylamide]
G (proived a mass modification ≦30%) | > 1000 | C=CC(=O)Nc1ccccc1CNc1nc(N[C@H]2CCCN(C(=O)CO)C2)ncc1C(F)(F)F [Compound I-45, (S)—N-(2-(((2-((1-(2-Hydroxyacetyl)piperidin-3-yl)amino)-5-(trifluoromethyl)pyrimidin-4-yl)amino)methyl)phenyl)acrylamide]
G (proived a mass modification ≦30%) | < 100 | C=C(C)S(=O)(=O)Nc1cc(C)ccc1Nc1nc(N[C@H]2CCCN(C(=O)CO)C2)ncc1C(F)(F)F [Compound I-47, (S)—N-(2-((2-((1-(2-Hydroxyacetyl)piperidin-3-yl)amino)-5-(trifluoromethyl)pyrimidin-4-yl)amino)-5-methylphenyl)prop-1-ene-2-sulfonamide]
G (proived a mass modification ≦30%) | < 100 | C=C(C)S(=O)(=O)Nc1cc(C)ccc1Nc1nc(NC2CCC(=O)CC2)ncc1C(F)(F)F [Compound I-53, N-(5-Methyl-2-((2-((4-oxocyclohexyl)amino)-5-(trifluoromethyl)pyrimidin-4-yl)amino)phenyl)prop-1-ene-2-sulfonamide]
E (provided a mass modification of ≧70%) | > 1000 | C=CC(=O)Nc1ccccc1Nc1nc(N[C@@H]2CCN(C(=O)OC)C2)ncc1C(F)(F)F [Compound I-61, (R)-Methyl 3-((4-((2-Acrylamidophenyl)amino)-5-(trifluoromethyl)pyrimidin-2-yl)amino)pyrrolidine-1-carboxylate]
E (provided a mass modification of ≧70%) | < 100 | C=CC(=O)Nc1cc(OC)ccc1Nc1nc(N[C@H]2CCCN(C(=O)CO)C2)ncc1C(F)(F)F [Compound I-64, (S)—N-(2-((2-((1-(2-Hydroxyacetyl)piperidin-3-yl)amino)-5-(trifluoromethyl)pyrimidin-4-yl)amino)-5-methoxyphenyl)acrylamide]
E (provided a mass modification of ≧70%) | < 100 | C=CC(=O)Nc1ccccc1Nc1nc(Nc2cc(C(=O)NOC)ccc2C)ncc1C(F)(F)F [Compound I-69, 3-((4-((2-Acrylamidophenyl)amino)-5-(trifluoromethyl)pyrimidin-2-yl)amino)-N-methoxy-4-methylbenzamide]
